Source: patent publication US8282952B2, “Insect attractant” (Activetrad (Proprietary) Limited, priority 2007, dated 2012)

What was measured:
Female medflies [1] = assay: Delta trap catches in temperature controlled room, released female medflies; conditions: for effect on medfly attraction when added to NATC 1%: Experiment 22
Female medflies [2] = assay: Delta trap catches in orchards, released female medflies; format: in vivo, Ceratitis capitata

## CC(=O)OCC[N+](C)(C)C.[Cl-] [Acetyl choline chloride]
Female medflies [1]; as amine in the NATC/amine/NH4Ac/Molasses mixture
  times more attractive than the tri-ethanolamine mixtures: about 3 times
Female medflies [1]; in vivo
  more medflies attracted than Choline chloride (number): 284.2
  more medflies attracted than Choline chloride (percent): 93%

## CCOC(=O)CC(SP(=S)(OC)OC)C(=O)OCC (centres unmarked) [Malathion]
Female medflies [2]; in vivo
  times more female medflies caught with poison than without it: ~1.5 times

## CC(=O)O [acetic acid]
Female medflies [1]; Experiment 14, added to NATC + TEA
  effect of addition on medfly trap catches with TEA: seems to decrease

## Cc1cnc(C)c(C)n1 [2,3,5-Trimethyl pyrazine]
Female medflies [1]
  effect on medfly attraction when added to NATC 1%: suppressed medfly attraction

## C=C(C)[C@H]1Cc2c(ccc3c2O[C@@H]2COc4cc(OC)c(OC)cc4[C@@H]2C3=O)O1 [Rotenone]
Female medflies [2]; Experiment 7, 0.5% poison added to NATC 1% in YP vs NATC 1% in YP alone
  effect of the bait poison combined with NATC in YP on female medfly trap catches: small differences

## COc1cccc(C(N)=O)c1 [3-Methoxy benzamide]
Female medflies [1]
  effect on medfly attraction when added to NATC 1%: suppressed medfly attraction

## CC(=O)O.N [Ammonium acetate]
Female medflies [1]; in vivo
  attracting partner for the NATC-0.5%+TEA-0.5% combination compared with Maltol 0.5%: stronger attracting partner
  increase of trap catches by addition to the NATC-1%+TEA-1% mixture: 272.5%

## CN(C)Cc1c[nH]c2ccccc12 [Gramine]
Female medflies [1]
  effect on medfly attraction when added to NATC 1%: suppressed medfly attraction
